Measured values: patent US8148373B2, “Compounds” (AstraZeneca AB, priority 2008, dated 2012)

What was measured:
[1] = molecular target: T1, human muscarinic acetylcholine M3 receptor (M3-ACh) (Homo sapiens, UniProt P20309); assay: Muscarinic 3 Receptor Binding Assay, % inhibition specific binding at 1 μM; conditions: 1 μM compound, % inhibition specific [3H]-NMS binding
T1 construct: expressed in transfected cells; host or cells: CHO-K1 (Chinese Hamster Ovary) cell membranes
Procedure, shortened: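 Competition binding of 0.1 nM [3H]NMS to membranes from CHO-K1 cells expressing human M3, SPA format, with compound at 1 μM in 20 mM HEPES pH 7.4, 5 mM MgCl2, 1% DMSO. Incubated 16 h at room temperature; non-specific binding defined by 1 μM atropine; value is % inhibition of specific binding.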

[2] = molecular target: T2, Adrenergic β2 (H292 cells) (Homo sapiens, UniProt P07550); assay: Adrenergic β2 Mediated cAMP Production, single concentration 1 μM; format: cell-based; conditions: NCI-H292, 1 μM compound, percentage of the maximum response generated by 1E-07M formoterol, read-out: β2 (% effect at 1 μM)
T2 construct: endogenous in cells; host or cells: H292 cells
Procedure, shortened: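 H292 cells were plated overnight, pre-treated with 300 μM rolipram for 10 min, then exposed to compound at 1 μM final (1% DMSO) for 60 min at room temperature. cAMP in the lysates was measured by AlphaScreen against a standard curve and expressed as % of the maximal response to 1E-07M formoterol.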

T2 sequence (P07550 whole entry): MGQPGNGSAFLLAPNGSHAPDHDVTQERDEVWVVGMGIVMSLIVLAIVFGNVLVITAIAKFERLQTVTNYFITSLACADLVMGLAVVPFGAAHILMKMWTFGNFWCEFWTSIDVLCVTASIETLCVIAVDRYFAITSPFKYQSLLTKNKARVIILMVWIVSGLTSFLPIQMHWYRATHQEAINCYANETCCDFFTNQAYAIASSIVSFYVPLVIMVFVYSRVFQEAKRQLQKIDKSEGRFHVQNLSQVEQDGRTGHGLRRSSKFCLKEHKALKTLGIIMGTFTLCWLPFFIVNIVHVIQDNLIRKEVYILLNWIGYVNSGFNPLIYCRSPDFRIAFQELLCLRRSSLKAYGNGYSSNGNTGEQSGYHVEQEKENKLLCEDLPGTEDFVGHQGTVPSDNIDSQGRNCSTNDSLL
T1 sequence (P20309 whole entry): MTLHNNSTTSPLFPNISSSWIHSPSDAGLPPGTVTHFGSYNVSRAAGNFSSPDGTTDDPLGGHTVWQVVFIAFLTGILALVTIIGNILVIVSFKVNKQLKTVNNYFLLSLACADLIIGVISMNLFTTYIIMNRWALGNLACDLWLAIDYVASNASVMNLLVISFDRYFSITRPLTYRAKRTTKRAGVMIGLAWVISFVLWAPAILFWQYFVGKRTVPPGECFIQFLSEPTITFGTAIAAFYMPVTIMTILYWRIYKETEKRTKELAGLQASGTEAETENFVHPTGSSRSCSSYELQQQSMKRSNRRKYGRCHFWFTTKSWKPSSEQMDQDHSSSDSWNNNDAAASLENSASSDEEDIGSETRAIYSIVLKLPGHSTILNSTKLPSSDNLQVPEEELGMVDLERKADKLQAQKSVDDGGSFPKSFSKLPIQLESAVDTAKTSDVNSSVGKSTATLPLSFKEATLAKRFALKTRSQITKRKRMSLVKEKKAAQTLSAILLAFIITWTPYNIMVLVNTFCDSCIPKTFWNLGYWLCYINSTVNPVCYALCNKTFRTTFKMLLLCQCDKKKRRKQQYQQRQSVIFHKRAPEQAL

SMILES	inhibition at 1 µM [1]	activation at 1 µM [2]
O=C(c1ccc(-c2cc[nH]n2)cc1)N1CCOC2(CCN(Cc3cc(F)cc(CCNC[C@H](O)c4ccc(O)c5[nH]c(=O)sc45)c3)CC2)C1 [Example 148, (R)-7-(2-(3-((4-(4-(1H-pyrazol-3-yl)benzoyl)-1-oxa-4,9-diazaspiro[5.5]undecan-9-yl)methyl)-5-fluorophenethylamino)-1-hydroxyethyl)-4-hydroxybenzo[d]thiazol-2(3H)-one]	4%	104%
O=C(c1ccc(-c2cnco2)cc1)N1CCOC2(CCN(Cc3cc(F)cc(CCNC[C@H](O)c4ccc(O)c5[nH]c(=O)sc45)c3)CC2)C1 [Example 159, (R)-7-(2-(3-fluoro-5-((4-(4-(oxazol-5-yl)benzoyl)-1-oxa-4,9-diazaspiro[5.5]undecan-9-yl)methyl)phenethylamino)-1-hydroxyethyl)-4-hydroxybenzo[d]thiazol-2(3H)-one]	3%	90%
CC(C)(C)c1nc(C(=O)N2CCOC3(CCN(CCCCCCCCCNC[C@H](O)c4ccc(O)c5[nH]c(=O)sc45)CC3)C2)cs1 [Example 216, (R)-7-(2-(9-(4-(2-tert-butylthiazole-4-carbonyl)-1-oxa-4,9-diazaspiro[5.5]undecan-9-yl)nonylamino)-1-hydroxyethyl)-4-hydroxybenzo[d]thiazol-2(3H)-one]	90%	88%
Cc1nc(CC(=O)N2CCOC3(CCN(CCOc4ccc(CNC[C@H](O)c5ccc(O)c6[nH]c(=O)sc56)cc4)CC3)C2)cs1 [Example 251, (R)-4-hydroxy-7-(1-hydroxy-2-(4-(2-(4-(2-(2-methylthiazol-4-yl)acetyl)-1-oxa-4,9-diazaspiro[5.5]undecan-9-yl)ethoxy)benzylamino)ethyl) benzo[d]thiazol-2(3H)-one]	51%	68%
O=C(c1cnc(-c2ccccc2)[nH]1)N1CCOC2(CCN(Cc3cc(F)cc(CCNC[C@H](O)c4ccc(O)c5[nH]c(=O)sc45)c3)CC2)C1 [Example 175, (R)-7-(2-(3-fluoro-5-((4-(2-phenyl-1H-imidazole-5-carbonyl)-1-oxa-4,9-diazaspiro[5.5]undecan-9-yl)methyl)phenethylamino)-1-hydroxyethyl)-4-hydroxybenzo[d]thiazol-2(3H)-one]	3%	94%
Cc1ccsc1C(=O)N1CCOC2(CCN(CCCCCCCCCNC[C@H](O)c3ccc(O)c4[nH]c(=O)sc34)CC2)C1 [Example 191, (R)-4-hydroxy-7-(1-hydroxy-2-(9-(4-(3-methylthiophene-2-carbonyl)-1-oxa-4,9-diazaspiro[5.5]undecan-9-yl)nonylamino)ethyl)benzo[d]thiazol-2(3H)-one]	94%	82%
Cc1sccc1C(=O)N1CCOC2(CCN(CCOc3ccc(CNC[C@H](O)c4ccc(O)c5[nH]c(=O)sc45)cc3)CC2)C1 [Example 246, (R)-4-hydroxy-7-(1-hydroxy-2-(4-(2-(4-(2-methylthiophene-3-carbonyl)-1-oxa-4,9-diazaspiro[5.5]undecan-9-yl)ethoxy)benzylamino)ethyl) benzo[d]thiazol-2(3H)-one]	38%	72%
Cc1nc(C(=O)N2CCOC3(CCN(CCOc4ccc(CNC[C@H](O)c5ccc(O)c6[nH]c(=O)sc56)cc4)CC3)C2)c(C)s1 [Example 242, (R)-7-(2-(4-(2-(4-(2,5-dimethylthiazole-4-carbonyl)-1-oxa-4,9-diazaspiro[5.5]undecan-9-yl)ethoxy)benzylamino)-1-hydroxyethyl)-4-hydroxy-benzo[d]thiazol-2(3H)-one]	83%	43%
O=C(Cc1ccc(-c2ccccc2)cc1)N1CCOC2(CCN(Cc3cc(F)cc(CCNC[C@H](O)c4ccc(O)c5[nH]c(=O)sc45)c3)CC2)C1 [Example 123, (R)-7-(2-(3-((4-(2-(biphenyl-4-yl)acetyl)-1-oxa-4,9-diazaspiro[5.5]undecan-9-yl)methyl)-5-fluorophenethylamino)-1-hydroxyethyl)-4-hydroxybenzo[d]thiazol-2(3H)-one]	62%	97%
O=C(Cc1ccccc1)N1CCOC2(CCN(CCCCCCCCCNC[C@H](O)c3ccc(O)c4[nH]c(=O)sc34)CC2)C1 [Example 186, (R)-4-hydroxy-7-(1-hydroxy-2-(9-(4-(2-phenylacetyl)-1-oxa-4,9-diazaspiro[5.5]undecan-9-yl)nonylamino)ethyl)benzo[d]thiazol-2(3H)-one]	95%	86%
Cc1cc(C(=O)N2CCOC3(CCN(CCOc4ccc(CNC[C@H](O)c5ccc(O)c6[nH]c(=O)sc56)cc4)CC3)C2)c(C)s1 [Example 243, (R)-7-(2-(4-(2-(4-(2,5-dimethylthiophene-3-carbonyl)-1-oxa-4,9-diazaspiro[5.5]undecan-9-yl)ethoxy)benzylamino)-1-hydroxyethyl)-4-hydroxy-benzo[d]thiazol-2(3H)-one]	78%	84%
O=C(Cc1ccsc1)N1CCOC2(CCN(Cc3cc(F)cc(CCNC[C@H](O)c4ccc(O)c5[nH]c(=O)sc45)c3)CC2)C1 [Example 126, (R)-7-(2-(3-fluoro-5-((4-(2-(thiophen-3-yl)acetyl)-1-oxa-4,9-diazaspiro[5.5]undecan-9-yl)methyl)phenethylamino)-1-hydroxyethyl)-4-hydroxybenzo[d]thiazol-2(3H)-one]	50%	98%
Cc1ccc2nc(C)c(C(=O)N3CCOC4(CCN(Cc5cc(F)cc(CCNC[C@H](O)c6ccc(O)c7[nH]c(=O)sc67)c5)CC4)C3)n2c1 [Example 143, (R)-7-(2-(3-((4-(2,6-dimethylimidazo[1,2-a]pyridine-3-carbonyl)-1-oxa-4,9-diazaspiro[5.5]undecan-9-yl)methyl)-5-fluorophenethylamino)-1-hydroxyethyl)-4-hydroxybenzo[d]thiazol-2(3H)-one]	2%	108%
Cc1sccc1C(=O)N1CCOC2(CCN(CCCCCCCCCNC[C@H](O)c3ccc(O)c4[nH]c(=O)sc34)CC2)C1 [Example 205, (R)-4-hydroxy-7-(1-hydroxy-2-(9-(4-(2-methylthiophene-3-carbonyl)-1-oxa-4,9-diazaspiro[5.5]undecan-9-yl)nonylamino)ethyl)benzo[d]thiazol-2(3H)-one]	91%	85%
CC(C)c1cc(C(=O)N2CCOC3(CCN(CCCCCCCCCNC[C@H](O)c4ccc(O)c5[nH]c(=O)sc45)CC3)C2)no1 [Example 214, (R)-4-hydroxy-7-(1-hydroxy-2-(9-(4-(5-isopropylisoxazole-3-carbonyl)-1-oxa-4,9-diazaspiro[5.5]undecan-9-yl)nonylamino)ethyl)benzo[d]thiazol-2(3H)-one]	91%	82%
Cc1ccc(C(=O)N2CCOC3(CCN(CCOc4ccc(CNC[C@H](O)c5ccc(O)c6[nH]c(=O)sc56)cc4)CC3)C2)o1 [Example 239, (R)-4-hydroxy-7-(1-hydroxy-2-(4-(2-(4-(5-methylfuran-2-carbonyl)-1-oxa-4,9-diazaspiro[5.5]undecan-9-yl)ethoxy)benzylamino)ethyl) benzo[d]thiazol-2(3H)-one]	90%	76%
O=C(COCc1ccccc1)N1CCOC2(CCN(CCCCCCCCCNC[C@H](O)c3ccc(O)c4[nH]c(=O)sc34)CC2)C1 [Example 203, (R)-7-(2-(9-(4-(2-(benzyloxy)acetyl)-1-oxa-4,9-diazaspiro[5.5]undecan-9-yl)nonylamino)-1-hydroxyethyl)-4-hydroxybenzo[d]thiazol-2(3H)-one]	94%	99%
CCCc1nc(C(=O)N2CCOC3(CCN(CCOc4ccc(CNC[C@H](O)c5ccc(O)c6[nH]c(=O)sc56)cc4)CC3)C2)cs1 [Example 260, (R)-4-hydroxy-7-(1-hydroxy-2-(4-(2-(4-(2-propylthiazole-4-carbonyl)-1-oxa-4,9-diazaspiro[5.5]undecan-9-yl)ethoxy)benzylamino)ethyl) benzo[d]thiazol-2(3H)-one]	93%	56%
O=C(CCc1ccccc1)N1CCOC2(CCN(CCCCCCCCCNC[C@H](O)c3ccc(O)c4[nH]c(=O)sc34)CC2)C1 [Example 187, (R)-4-hydroxy-7-(1-hydroxy-2-(9-(4-(3-phenylpropanoyl)-1-oxa-4,9-diazaspiro[5.5]undecan-9-yl)nonylamino)ethyl)benzo[d]thiazol-2(3H)-one]	84%	92%
Cc1noc(C)c1CC(=O)N1CCOC2(CCN(Cc3cc(F)cc(CCNC[C@H](O)c4ccc(O)c5[nH]c(=O)sc45)c3)CC2)C1 [Example 167, (R)-7-(2-(3-((4-(2-(3,5-dimethylisoxazol-4-yl)acetyl)-1-oxa-4,9-diazaspiro[5.5]undecan-9-yl)methyl)-5-fluorophenethylamino)-1-hydroxyethyl)-4-hydroxybenzo[d]thiazol-2(3H)-one]	8%	100%
O=C(c1[nH]nc2c1CCCC2)N1CCOC2(CCN(Cc3cc(F)cc(CCNC[C@H](O)c4ccc(O)c5[nH]c(=O)sc45)c3)CC2)C1 [Example 146, (R)-7-(2-(3-fluoro-5-((4-(4,5,6,7-tetrahydro-2H-indazole-3-carbonyl)-1-oxa-4,9-diazaspiro[5.5]undecan-9-yl)methyl)phenethylamino)-1-hydroxyethyl)-4-hydroxybenzo[d]thiazol-2(3H)-one]	41%	96%
